“And” between values parts separate entries of the source, which are not always exact repeats. Equal entries are not always repeated.
Key:
[1] = tested on: HCT116; assay: K-Ras Wnt synthetic lethal, HCT116 KrasSL; assay type: cell-based; conditions: Homo sapiens, HCT-116, read-out: HCT116 KrasSL % Inhibit
Source text: (§1) Selected compounds of this invention were screened for K-Ras Wnt synthetic lethal, anti-angiogenic activity, Wnt pathway modulatory activity, insulin and GLP-1 secretion modulatory activity, GPR119 receptor agonist activity, mGlu2R antagonist activity, CGRP receptor antagonist activity, Apelin receptor agonist activity and hexokinase 2 inhibitory activity using the PD^2 and TD^2 Screening Panel (Eli Lilly & Company). See Lee, et al. (2011) J. Biomol. Screen. 16:588-602.

[2] = tested on: Pituitary Cells; assay: Secondary assay, pituitary cells growth hormone secretion; assay type: cell-based; conditions: @ 3.3 μM
Protocol: (§2) In light of the above results, additional compounds (Table 7) were prepared and phenotypic assays were carried out using hNCI-H716 and mSTC-1 cell lines to monitor GLP-1 secretion (single point (SP) and concentration response curves (CRC)) (Table 8), as well as a secondary assay with pituitary cells (Table 9).

[3] = molecular target: T1, hGPR119 (Homo sapiens, UniProt Q8TDV5); assay: GPR119 receptor agonist, hGPR119 agonism; assay type: cell-based; conditions: @ 10 μM
T1 sequence (Q8TDV5 1-335): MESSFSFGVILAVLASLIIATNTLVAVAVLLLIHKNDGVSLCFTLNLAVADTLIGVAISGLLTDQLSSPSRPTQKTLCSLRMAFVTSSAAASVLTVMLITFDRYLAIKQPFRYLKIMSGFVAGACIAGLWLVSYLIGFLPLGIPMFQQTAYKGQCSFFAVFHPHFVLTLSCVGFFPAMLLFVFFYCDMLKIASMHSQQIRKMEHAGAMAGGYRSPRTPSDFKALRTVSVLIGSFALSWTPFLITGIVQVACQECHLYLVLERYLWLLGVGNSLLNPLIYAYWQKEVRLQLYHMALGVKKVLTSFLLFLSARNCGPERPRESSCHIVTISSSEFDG
Source text: as §1

[4] = tested on: hNCI-H716; assay: hNCI basal LDH secretion; assay type: cell-based; conditions: read-out: Primary CRC (EC50, μM) hNCI Basal
Protocol: as §2

[5] = Plasma compound exposure after oral dosing in mice; assay type: in vivo, Mice (male C57BL/6); conditions: male, C57BL/6, mouse, plasma, oral 100 mg/kg, 30 minutes post-dose, read-out: mean (±standard deviation) plasma levels
Protocol: (§3) Mice (male C57BL/6, 8-10 weeks of age) were fasted overnight by being placed in a clean cage without food. The next day, all mice were weighed and assigned to groups of similar body weights. Test compounds were formulated in 1% HEC, 0.25% TWEEN 80, 0.05% antifoam (vehicle control). Compounds 11ls and llu were orally dosed (100 mg/kg) and cardiac sticks were done on CO2 euthanized mice at 30 minutes post-dose. Blood (500+μL whole blood) from the cardiac stick was placed in chilled EDTA-plasma tubes with inhibitors, DPP4 inhibitor (5 μL/500 μL blood) and aprotinin (bovine lung, […]/500 μL blood), and stored on ice. Plasma was separated by centrifugation and aliquoted for compound exposure to total GIP and GLP-1 (X-36 amide). Plates for compound exposure were analyzed for absorption, distribution, metabolism, and excretion, while conventional kits were used for GLP-1 (x-36) amide (Mesoscale) and GIP (Millipore) analyses.

[6] = molecular target: hMGLUR2 (Homo sapiens, UniProt Q14416); assay: mGlu2R antagonist, hMGLUR2; assay type: cell-based
Sequence of hMGLUR2 (Q14416 19-872): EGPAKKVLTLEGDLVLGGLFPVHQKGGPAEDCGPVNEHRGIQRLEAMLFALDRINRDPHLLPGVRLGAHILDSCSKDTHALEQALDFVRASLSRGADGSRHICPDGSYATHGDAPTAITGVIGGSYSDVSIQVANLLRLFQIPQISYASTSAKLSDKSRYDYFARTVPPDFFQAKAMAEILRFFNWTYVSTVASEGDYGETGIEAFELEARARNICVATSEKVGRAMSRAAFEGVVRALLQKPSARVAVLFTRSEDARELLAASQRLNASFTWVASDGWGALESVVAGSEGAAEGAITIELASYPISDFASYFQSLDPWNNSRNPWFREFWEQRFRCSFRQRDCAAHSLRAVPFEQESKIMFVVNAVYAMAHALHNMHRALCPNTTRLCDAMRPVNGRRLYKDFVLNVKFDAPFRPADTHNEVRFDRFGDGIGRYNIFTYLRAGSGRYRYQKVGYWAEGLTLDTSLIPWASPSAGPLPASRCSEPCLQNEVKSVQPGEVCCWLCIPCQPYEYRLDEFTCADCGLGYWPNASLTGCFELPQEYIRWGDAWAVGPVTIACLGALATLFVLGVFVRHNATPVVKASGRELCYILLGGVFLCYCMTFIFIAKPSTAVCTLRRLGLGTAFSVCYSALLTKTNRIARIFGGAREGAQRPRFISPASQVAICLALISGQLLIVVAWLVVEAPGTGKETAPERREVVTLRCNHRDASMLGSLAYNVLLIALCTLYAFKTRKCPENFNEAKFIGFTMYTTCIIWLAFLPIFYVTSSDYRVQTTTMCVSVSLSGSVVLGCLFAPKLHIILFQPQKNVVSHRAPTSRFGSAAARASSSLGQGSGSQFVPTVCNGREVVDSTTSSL
Source text: as §1

[7] = tested on: hNCI-H716; assay: hNCI-H716 GLP-1 secretion; assay type: cell-based
Source text: as §1, §2

[8] = tested on: Angio Tube Area; assay: Anti-angiogenic activity, Angio Tube Area; assay type: cell-based; conditions: read-out: Angio Tube Area % Inhibit
Source text: as §1

[9] = tested on: Wnt Pathway; assay: Wnt pathway modulatory activity, Osteo bCat; assay type: cell-based
Source text: as §1

[10] = tested on: SNU-C1; assay: K-Ras Wnt synthetic lethal, SNU-C1 KrasSL; assay type: cell-based; conditions: Homo sapiens, read-out: SNU-C1 KrasSL % Inhibit
Source text: as §1

[11] = tested on: Co1o320; assay: K-Ras Wnt synthetic lethal, Co1o320 KrasSL; assay type: cell-based; conditions: read-out: Co1o320 KrasSL % Inhibit
Source text: as §1

[12] = tested on: RKO; assay: K-Ras Wnt synthetic lethal, RKO KrasSL; assay type: cell-based; conditions: Homo sapiens, average of three independent experiments, read-out: RKO KrasSL % Inhibit
Source text: as §1

[13] = tested on: Insulin Secretion; assay: Insulin secretion, Secretion Hi Gluc; assay type: cell-based
Source text: as §1

[14] = tested on: GLP-1 (X-36 amide); assay: Plasma GLP-1 response to oral compound in mice; assay type: in vivo, Mice (male C57BL/6); conditions: oral 100 mg/kg, plasma 30 minutes post-dose
Protocol: as §3

[15] = molecular target: hCGRP1 (Homo sapiens, UniProt O60894+Q16602); assay: CGRP receptor antagonist, hCGRP1 antagonism; assay type: cell-based
Sequence of hCGRP1 (Q16602 23-461): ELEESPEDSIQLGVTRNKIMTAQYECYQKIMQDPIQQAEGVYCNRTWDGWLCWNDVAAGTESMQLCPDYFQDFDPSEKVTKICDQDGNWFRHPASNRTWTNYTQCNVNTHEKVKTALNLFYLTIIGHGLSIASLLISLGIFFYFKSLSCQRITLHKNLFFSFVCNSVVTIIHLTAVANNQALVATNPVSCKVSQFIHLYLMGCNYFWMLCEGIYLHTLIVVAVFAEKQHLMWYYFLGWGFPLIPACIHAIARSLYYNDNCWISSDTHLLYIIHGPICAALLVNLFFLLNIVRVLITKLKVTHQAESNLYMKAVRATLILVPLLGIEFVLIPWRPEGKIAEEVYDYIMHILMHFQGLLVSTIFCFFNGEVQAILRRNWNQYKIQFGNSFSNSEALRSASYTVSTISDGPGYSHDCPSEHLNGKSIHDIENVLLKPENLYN
Sequence of hCGRP1 (O60894 27-148 partner): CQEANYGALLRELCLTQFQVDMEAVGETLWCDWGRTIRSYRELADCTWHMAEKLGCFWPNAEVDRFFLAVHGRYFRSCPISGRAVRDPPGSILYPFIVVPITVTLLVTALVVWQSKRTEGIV
Source text: as §1

[16] = molecular target: T2, hApelin (Homo sapiens, UniProt P35414); assay: Apelin receptor agonist, hApelin agonism; assay type: cell-based; conditions: @ 30 μM
T2 sequence (P35414 1-380): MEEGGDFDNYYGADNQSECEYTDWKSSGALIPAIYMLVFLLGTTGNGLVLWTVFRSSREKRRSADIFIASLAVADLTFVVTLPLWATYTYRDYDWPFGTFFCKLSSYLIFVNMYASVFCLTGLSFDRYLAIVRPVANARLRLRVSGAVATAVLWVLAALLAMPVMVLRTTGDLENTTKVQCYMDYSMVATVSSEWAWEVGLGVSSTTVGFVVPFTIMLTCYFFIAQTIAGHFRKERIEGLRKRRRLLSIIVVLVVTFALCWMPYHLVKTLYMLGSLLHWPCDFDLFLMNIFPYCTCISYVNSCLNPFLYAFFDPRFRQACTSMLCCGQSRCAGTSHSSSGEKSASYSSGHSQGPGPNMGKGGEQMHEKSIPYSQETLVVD
Source text: as §1

[17] = tested on: GIP; assay: Plasma GIP response to oral compound in mice; assay type: in vivo, Mice (male C57BL/6); conditions: oral 100 mg/kg, plasma 30 minutes post-dose
Protocol: as §3

Structure (SMILES): CC1(C)c2c([nH]c3ccc(Cl)cc23)C2C=CC1C2 (stereo not shown) [Compound 11s]
- inhibition at 0.2 µM ([1]; @ 0.2 μM): 2.3%
- inhibition at 2 µM ([1]; @ 2 μM): -38%
- inhibition at 20 µM ([1]; @ 20 μM): 96.4%
- Pituitary Cells (Growth Hormone Secretion, % Stimulation) [2]: −10.0% and −17.7% and −18.6%
- hGPR119 agonism % Stimulation [3]: −5.1%
- EC50 [4]: > 40 µM
- concentration at 30 min [5]: 412 ± 88.2 ng/mL
- inhibition at 50 µM [6]: -20.4%
- activation at 2 µM ([7]; 2 μM, GLP-1 secretion, single point, read-out: Primary SP hNCI (% Stim.)): -1.7%
- activation at 20 µM ([7]; 20 μM, GLP-1 secretion, single point, read-out: Primary SP hNCI (% Stim.)): 108%
- hNCI GLP-1 Secretion % Stimulation ([7]; @ 2 μM): −1.7%
- hNCI GLP-1 Secretion % Stimulation ([7]; @ 20 μM): 108%
- EC50 ([7]; GLP-1 secretion, concentration response curve, read-out: Primary CRC (EC50, μM) hNCI): 34.8 µM and 33.5 µM and 23.2 µM and > 40 µM
- EC50 ([7]; average of three independent experiments, read-out: hNCI GLP-1 Secretion EC50): 34.8 µM
- EC50 ([7]; secretion and/or production of GLP-1, read-out: EC50 values (Table 6)): 35 µM
- inhibition at 2 µM ([8]; @ 2 μM): 21.7%
- inhibition at 10 µM ([8]; @ 10 μM): 21.8%
- Osteo bCat % Stimulation ([9]; @ 2 μM): 1.3%
- Osteo bCat % Stimulation ([9]; @ 10 μM): 9.3%
- inhibition at 0.2 µM ([10]; @ 0.2 μM): 15.7%
- inhibition at 2 µM ([10]; @ 2 μM): 5.5%
- inhibition at 20 µM ([10]; @ 20 μM): 106%
- inhibition at 0.2 µM ([11]; @ 0.2 μM): 33.3%
- inhibition at 2 µM ([11]; @ 2 μM): 15.8%
- inhibition at 20 µM ([11]; @ 20 μM): 150%
- inhibition at 0.2 µM ([12]; @ 0.2 μM): -2.8%
- inhibition at 2 µM ([12]; @ 2 μM): 14.4%
- inhibition at 20 µM ([12]; @ 20 μM): 102%
- Secretion Hi Gluc % Stimulation ([13]; @ 2 μM): −1.2%
- Secretion Hi Gluc % Stimulation ([13]; @ 10 μM): 15.8%
- Avg. GLP-1 (pg/mL) ±SEM [14]: 5.52 ± 1.18 pg/mL
- inhibition at 30 µM [15]: 77.1%
- hApelin agonism % Stimulation [16]: −46.2%
- Avg. GIP (pg/mL) ±SEM [17]: 23.42 ± 7.44 pg/mL
